# System: proteasome subunit gene expression (PSMC4, PSMB7, PSMD12)
# Assay: RT-qPCR of proteasome genes in NFE2L1/NFE2L2-knockdown HEK293 cells
# Type: cell-based, human
# Settings: for NFE2L1 mRNA, mean diff between siRNA treatments, log2 / NFE2L2 mRNA, mean diff between siRNA treatments, log2 / PSMB7 mRNA, mean diff between siRNA treatments, log2 / PSMD12 mRNA, mean diff between siRNA treatments, log2: RUN89-treated
# Protocol: Fig. 1 (A) Targeted library screening of RUN compounds using the 3×PSMA4-ARE-LUC dual reporter assay in HEK293 cells. Cells were exposed to RUN compounds (5 μM) for 16 hours, and luciferase activity was measured. Data are presented as the mean ± SD from three independent experiments (n = 3). Results are shown as a fold change in luminescence relative to DMSO-treated cells. Selected hit compounds are highlighted in distinct colours. (B) RUN-89 specifically activates the NFE2L1 pathway. The DDI2 knockout (KO) and parental (WT) HCT116 cells were transfected with the 3×PSMA4-ARE-LUC reporter and treated with 0.5 μM bortezomib (BTZ) and 5 μM RUN-89 for 16 hours. Data are presented as the Geomean ± GeoSD of three independent experiments (n = 3). Statistical analysis was performed on log2-transformed values using two-way repeated-measures ANOVA followed by Šídak's multiple comparison test. (C) RUN-89 selectively triggers downstream signaling events associated with NFE2L1 gene expression. HEK293 cells were transfected with lipid nanoparticles (LNPs) carrying siRNAs targeting NFE2L1 or NFE2L2. LNPs formulated with non-targeting siRNA served as a negative control. Following 24 hours of incubation, cells were treated with 7.5 μM RUN-89 or DMSO (vehicle) for an additional 16 hours. Expression of the proteasomal subunit gene PSMC4 was then quantified by RT-qPCR. Data are shown as the Geomean ± GeoSD from three independent biological replicates (n = 3). Log2-transformed data were analyzed using two-way repeated-measures ANOVA with the Geisser–Greenhouse correction, followed by Tukey's multiple comparison test with individual variances computed for each comparison. Additional results for NFE2L1, NFE2L2, PSMB7, and PSMD12 are presented in SI Fig. S10.
# To further confirm that RUN-89 acts through NFE2L1-dependent signalling, we investigated the effect of selective knockdown of NFE2L1 and NFE2L2 on the induction of proteasomal genes. HEK293 cells (from ATCC CCL-247 (RRID:CVCL_0291)) were transfected with lipid nanoparticles (LNPs) carrying siRNAs targeting either NFE2L1 or NFE2L2, while non-targeting siRNA was used as a control. After treatment with RUN-89, transcript levels of several proteasome subunit genes were analyzed by RT-qPCR.
# Figure S10: Effects of RUN-89 on NFE2L1- and NFE2L2-associated target genes following […]
# HEK293 cells were transfected with lipid nanoparticles (LNPs) containing siRNAs against NFE2L1, NFE2L2, or a non-targeting control siRNA. After 24 hours, cells were treated with 7.5 μM RUN-89 or DMSO (vehicle) for an additional 16 h, and transcript levels of NFE2L1, NFE2L2, PSMB4, PSMB7, and PSMD12 were quantified by RT -qPCR. Data are presented as mean ± SD from three independent biological replicates (n = 3). Log₂ -transformed data were analyzed by two -way repeated-measures ANOVA with Geisser –Greenhouse correction, followed by Tukey’s multiple compa rison test with individual variances computed for each comparison.
# 2.16 Analysis of proteasome genes expression in NFE2L1/NFE2L2-
# The corresponding HEK293 cells were seeded into 24-well culture plates (120,000 cells/well) and allowed to adhere overnight under standard culture conditions. On the following day, cells were transfected with siRNAs targeting NFE2L1, NFE2L2, or a non-targeting negative control siRNA (Table S2). Transfections were performed using a lipid nanoparticle (LNP) delivery system assembled as previously described,(7) with a final siRNA concentration of ~0.2 nmol per well. After 24 h of incubation, cells were treated with 7.5 µM […] or DMSO (vehicle control) for 16 h. Total RNA was then extracted, converted into cDNA, and analyzed by RT-qPCR using primers targeting proteasome genes (listed in Section 2.5, Quantitative RT-PCR, Table S1). Expression levels were normalized to RPLP0 mRNA. The […]
# [1] = NFE2L1 siRNA vs. NFE2L1 + L2 siRNA
# [2] = NFE2L2 siRNA vs. NFE2L1 + L2 siRNA
# [3] = Non transfected vs. NFE2L1 + L2 siRNA
# [4] = Non transfected vs. NFE2L1 siRNA
# [5] = Non transfected vs. NFE2L2 siRNA
# [6] = Non transfected vs. Scramble control siRNA
# [7] = Scramble control siRNA vs. NFE2L1 + L2 siRNA
# [8] = Scramble control siRNA vs. NFE2L1 siRNA
# [9] = Scramble control siRNA vs. NFE2L2 siRNA
smiles,measurement,setting,value
COc1ccc(/C=C2\CC(NC(=O)C3CCCC3)C/C(=C\c3ccc(OC)c(OC)c3)C2=O)cc1OC (centres unmarked) [RUN-89],"PSMC4 expression, mean log2, NFE2L1 + L2 siRNA","7.5 μM, 16 h, HEK293",0.5367
same,"PSMC4 expression, mean log2, NFE2L1 siRNA","7.5 μM, 16 h, HEK293",0.5329
same,"PSMC4 expression, mean log2, NFE2L2 siRNA","7.5 μM, 16 h, HEK293",1.12
same,"PSMC4 expression, mean log2, scramble control siRNA","7.5 μM, 16 h, HEK293",1.335
same,"PSMC4 expression, row mean of log2 values over all siRNA treatments","7.5 μM, 16 h, HEK293",0.9981
same,"PSMC4 expression, mean log2, non transfected","7.5 μM, 16 h, HEK293, no siRNA",1.466
same,"Induction of PSMC4 expression upon silencing of NFE2L1, but not NFE2L2","HEK293, siRNA LNPs",markedly reduced
same,"Mean diff, of log2-transformed values, DMSO vs. RUN89",NFE2L1 + L2 siRNA,0.1671
same,"NFE2L1 mRNA, mean diff DMSO vs. RUN89, log2",NFE2L1 + L2 siRNA,0.4839
same,"NFE2L1 mRNA, mean of log2-transformed values",NFE2L1 + L2 siRNA,-1.849
same,"NFE2L2 mRNA, mean diff DMSO vs. RUN89, log2",NFE2L1 + L2 siRNA,0.1671
same,"PSMB7 mRNA, mean diff DMSO vs. RUN89, log2",NFE2L1 + L2 siRNA,-0.04295
same,"PSMB7 mRNA, mean of log2-transformed values",NFE2L1 + L2 siRNA,-0.005215
same,"PSMD12 mRNA, mean diff DMSO vs. RUN89, log2",NFE2L1 + L2 siRNA,-1.247
same,"PSMD12 mRNA, mean of log2-transformed values",NFE2L1 + L2 siRNA,1.4
same,"Mean diff, of log2-transformed values, DMSO vs. RUN89",NFE2L1 siRNA,0.3261
same,"NFE2L1 mRNA, mean diff DMSO vs. RUN89, log2",NFE2L1 siRNA,0.5812
same,"NFE2L1 mRNA, mean of log2-transformed values",NFE2L1 siRNA,-2.192
same,"NFE2L2 mRNA, mean diff DMSO vs. RUN89, log2",NFE2L1 siRNA,0.3261
same,"PSMB7 mRNA, mean diff DMSO vs. RUN89, log2",NFE2L1 siRNA,0.02314
same,"PSMB7 mRNA, mean of log2-transformed values",NFE2L1 siRNA,-0.07162
same,"PSMD12 mRNA, mean diff DMSO vs. RUN89, log2",NFE2L1 siRNA,-1.239
same,"PSMD12 mRNA, mean of log2-transformed values",NFE2L1 siRNA,1.413
same,"Mean diff, of log2-transformed values, DMSO vs. RUN89",NFE2L2 siRNA,0.07457
same,"NFE2L1 mRNA, mean diff DMSO vs. RUN89, log2",NFE2L2 siRNA,-0.06055
same,"NFE2L1 mRNA, mean of log2-transformed values",NFE2L2 siRNA,-0.3257
same,"NFE2L2 mRNA, mean diff DMSO vs. RUN89, log2",NFE2L2 siRNA,0.07457
same,"PSMB7 mRNA, mean diff DMSO vs. RUN89, log2",NFE2L2 siRNA,-0.4898
same,"PSMB7 mRNA, mean of log2-transformed values",NFE2L2 siRNA,0.4898
same,"PSMD12 mRNA, mean diff DMSO vs. RUN89, log2",NFE2L2 siRNA,-1.678
same,"PSMD12 mRNA, mean of log2-transformed values",NFE2L2 siRNA,1.979
same,"Mean diff, of log2-transformed values, DMSO vs. RUN89",Non transfected,-0.3265
same,"NFE2L2 mRNA, mean diff DMSO vs. RUN89, log2",Non transfected,-0.3265
same,"PSMB7 mRNA, mean diff DMSO vs. RUN89, log2",Non transfected,-0.7476
same,"PSMB7 mRNA, mean of log2-transformed values",Non transfected,0.7599
same,"PSMD12 mRNA, mean diff DMSO vs. RUN89, log2",Non transfected,-1.909
same,"PSMD12 mRNA, mean of log2-transformed values",Non transfected,2.076
same,"NFE2L1 mRNA, mean diff between siRNA treatments, log2",[1],0.3437
same,"NFE2L2 mRNA, mean diff between siRNA treatments, log2",[1],2.749
same,"PSMB7 mRNA, mean diff between siRNA treatments, log2",[1],-0.0664
same,"PSMD12 mRNA, mean diff between siRNA treatments, log2",[1],0.01218
same,"NFE2L1 mRNA, mean diff between siRNA treatments, log2",NFE2L1 siRNA vs. NFE2L2 siRNA,1.867
same,"NFE2L2 mRNA, mean diff between siRNA treatments, log2",NFE2L1 siRNA vs. NFE2L2 siRNA,2.85
same,"PSMB7 mRNA, mean diff between siRNA treatments, log2",NFE2L1 siRNA vs. NFE2L2 siRNA,-0.5614
same,"PSMD12 mRNA, mean diff between siRNA treatments, log2",NFE2L1 siRNA vs. NFE2L2 siRNA,-0.5664
same,"NFE2L1 mRNA, mean diff between siRNA treatments, log2",[2],-1.523
same,"NFE2L2 mRNA, mean diff between siRNA treatments, log2",[2],-0.1013
same,"PSMB7 mRNA, mean diff between siRNA treatments, log2",[2],0.495
same,"PSMD12 mRNA, mean diff between siRNA treatments, log2",[2],0.5786
same,"NFE2L1 mRNA, mean diff between siRNA treatments, log2",[3],-2.639
same,"NFE2L2 mRNA, mean diff between siRNA treatments, log2",[3],3.437
same,"PSMB7 mRNA, mean diff between siRNA treatments, log2",[3],0.7651
same,"PSMD12 mRNA, mean diff between siRNA treatments, log2",[3],0.6755
same,"NFE2L1 mRNA, mean diff between siRNA treatments, log2",[4],-2.982
same,"NFE2L2 mRNA, mean diff between siRNA treatments, log2",[4],0.6883
same,"PSMB7 mRNA, mean diff between siRNA treatments, log2",[4],0.8315
same,"PSMD12 mRNA, mean diff between siRNA treatments, log2",[4],0.6633
same,"NFE2L1 mRNA, mean diff between siRNA treatments, log2",[5],-1.115
same,"NFE2L2 mRNA, mean diff between siRNA treatments, log2",[5],3.539
same,"PSMB7 mRNA, mean diff between siRNA treatments, log2",[5],0.27
same,"PSMD12 mRNA, mean diff between siRNA treatments, log2",[5],0.09696
same,"NFE2L2 mRNA, mean diff between siRNA treatments, log2",[6],-0.01225
same,"PSMB7 mRNA, mean diff between siRNA treatments, log2",[6],0.1431
same,"PSMD12 mRNA, mean diff between siRNA treatments, log2",[6],-0.01734
same,"NFE2L1 mRNA, mean diff between siRNA treatments, log2",[7],-2.465
same,"NFE2L2 mRNA, mean diff between siRNA treatments, log2",[7],3.45
same,"PSMB7 mRNA, mean diff between siRNA treatments, log2",[7],0.622
same,"PSMD12 mRNA, mean diff between siRNA treatments, log2",[7],0.6929
same,"NFE2L1 mRNA, mean diff between siRNA treatments, log2",[8],-2.808
same,"NFE2L2 mRNA, mean diff between siRNA treatments, log2",[8],0.7005
same,"PSMB7 mRNA, mean diff between siRNA treatments, log2",[8],0.6884
same,"PSMD12 mRNA, mean diff between siRNA treatments, log2",[8],0.6807
same,"NFE2L1 mRNA, mean diff between siRNA treatments, log2",[9],-0.9417
same,"NFE2L2 mRNA, mean diff between siRNA treatments, log2",[9],3.551
same,"PSMB7 mRNA, mean diff between siRNA treatments, log2",[9],0.127
same,"PSMD12 mRNA, mean diff between siRNA treatments, log2",[9],0.1143
same,"Mean diff, of log2-transformed values, DMSO vs. RUN89",Scramble control siRNA,-0.3474
same,"NFE2L1 mRNA, mean diff DMSO vs. RUN89, log2",Scramble control siRNA,0.6041
same,"NFE2L1 mRNA, mean of log2-transformed values",Scramble control siRNA,0.616
same,"NFE2L2 mRNA, mean diff DMSO vs. RUN89, log2",Scramble control siRNA,-0.3474
same,"PSMB7 mRNA, mean diff DMSO vs. RUN89, log2",Scramble control siRNA,-0.6138
same,"PSMB7 mRNA, mean of log2-transformed values",Scramble control siRNA,0.6168
same,"PSMD12 mRNA, mean diff DMSO vs. RUN89, log2",Scramble control siRNA,-2.092
same,"PSMD12 mRNA, mean of log2-transformed values",Scramble control siRNA,2.093
same,"NFE2L1 mRNA, mean of log2-transformed values (row mean)",mean over all siRNA treatments,-0.5922
same,"NFE2L2 mRNA, mean of log2-transformed values (row mean)",mean over all siRNA treatments,-1.194
same,"PSMB7 mRNA, mean of log2-transformed values (row mean)",mean over all siRNA treatments,0.3579
same,"PSMD12 mRNA, mean of log2-transformed values (row mean)",mean over all siRNA treatments,1.792
same,"NFE2L1 mRNA, difference between means (DMSO - RUN89), log2",over all siRNA treatments,-0.4084
same,"NFE2L2 mRNA, difference between means (DMSO - RUN89), log2",over all siRNA treatments,-0.02122
same,"PSMB7 mRNA, difference between means (DMSO - RUN89), log2",over all siRNA treatments,-0.3742
same,"PSMD12 mRNA, difference between means (DMSO - RUN89), log2",over all siRNA treatments,-1.633
